Results: ChEMBL document CHEMBL5291721, “A preclinical secondary pharmacology resource illuminates target-adverse drug reaction associations of marketed drugs” (Nat Commun, 2023)

What was measured:
[1] = molecular target: T1, Peroxisome proliferator-activated receptor gamma (Homo sapiens, UniProt P37231); assay type: functional
T1 sequence (P37231 whole entry): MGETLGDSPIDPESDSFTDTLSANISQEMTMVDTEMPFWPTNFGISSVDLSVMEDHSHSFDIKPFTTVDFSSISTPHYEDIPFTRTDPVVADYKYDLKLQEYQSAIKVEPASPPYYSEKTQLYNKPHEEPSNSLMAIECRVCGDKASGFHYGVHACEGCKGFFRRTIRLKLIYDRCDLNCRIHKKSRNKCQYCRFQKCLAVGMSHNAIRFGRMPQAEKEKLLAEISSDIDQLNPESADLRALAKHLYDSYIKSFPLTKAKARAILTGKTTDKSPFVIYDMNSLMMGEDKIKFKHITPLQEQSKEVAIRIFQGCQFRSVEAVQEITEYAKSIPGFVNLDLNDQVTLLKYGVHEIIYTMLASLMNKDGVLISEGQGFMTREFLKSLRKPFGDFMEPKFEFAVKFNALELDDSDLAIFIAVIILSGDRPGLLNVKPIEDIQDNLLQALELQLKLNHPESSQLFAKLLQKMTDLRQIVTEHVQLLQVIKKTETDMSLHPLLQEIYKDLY

[2] = molecular target: 5-hydroxytryptamine receptor 6 (Homo sapiens, UniProt P50406)
Chain of 5-hydroxytryptamine receptor 6 (P50406 whole entry): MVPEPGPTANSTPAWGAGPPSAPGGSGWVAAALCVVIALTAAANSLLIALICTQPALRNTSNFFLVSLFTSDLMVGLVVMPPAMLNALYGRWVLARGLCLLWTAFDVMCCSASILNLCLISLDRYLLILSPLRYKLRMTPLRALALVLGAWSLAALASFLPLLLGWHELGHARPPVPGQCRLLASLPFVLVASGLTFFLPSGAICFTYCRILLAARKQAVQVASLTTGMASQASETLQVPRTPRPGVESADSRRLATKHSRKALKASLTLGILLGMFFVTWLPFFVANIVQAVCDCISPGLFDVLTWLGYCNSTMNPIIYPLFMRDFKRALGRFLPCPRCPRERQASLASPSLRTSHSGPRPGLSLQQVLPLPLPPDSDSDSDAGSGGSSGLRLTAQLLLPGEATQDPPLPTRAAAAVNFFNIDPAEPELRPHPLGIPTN

[3] = molecular target: Prostaglandin G/H synthase 1 (Homo sapiens, UniProt P23219); assay type: functional
Chain of Prostaglandin G/H synthase 1 (P23219 whole entry): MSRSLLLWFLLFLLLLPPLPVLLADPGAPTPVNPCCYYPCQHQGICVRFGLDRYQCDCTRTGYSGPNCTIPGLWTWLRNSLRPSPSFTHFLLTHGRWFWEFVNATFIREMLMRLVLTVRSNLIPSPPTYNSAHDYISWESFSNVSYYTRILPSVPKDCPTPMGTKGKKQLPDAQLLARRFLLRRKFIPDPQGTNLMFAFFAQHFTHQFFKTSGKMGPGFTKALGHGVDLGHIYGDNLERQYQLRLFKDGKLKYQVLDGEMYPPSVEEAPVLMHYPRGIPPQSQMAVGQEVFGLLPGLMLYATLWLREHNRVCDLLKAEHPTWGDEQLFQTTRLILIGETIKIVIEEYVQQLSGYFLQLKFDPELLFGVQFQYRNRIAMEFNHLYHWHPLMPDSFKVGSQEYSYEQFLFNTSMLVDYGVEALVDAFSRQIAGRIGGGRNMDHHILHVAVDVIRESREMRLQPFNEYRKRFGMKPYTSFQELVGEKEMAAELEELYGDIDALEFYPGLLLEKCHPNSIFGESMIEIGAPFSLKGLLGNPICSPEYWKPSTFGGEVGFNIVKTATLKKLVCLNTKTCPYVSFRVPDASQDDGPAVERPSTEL

[4] = molecular target: T2, Muscarinic acetylcholine receptor M1 (Homo sapiens, UniProt P11229); assay type: functional, cell-based
T2 sequence (P11229 whole entry): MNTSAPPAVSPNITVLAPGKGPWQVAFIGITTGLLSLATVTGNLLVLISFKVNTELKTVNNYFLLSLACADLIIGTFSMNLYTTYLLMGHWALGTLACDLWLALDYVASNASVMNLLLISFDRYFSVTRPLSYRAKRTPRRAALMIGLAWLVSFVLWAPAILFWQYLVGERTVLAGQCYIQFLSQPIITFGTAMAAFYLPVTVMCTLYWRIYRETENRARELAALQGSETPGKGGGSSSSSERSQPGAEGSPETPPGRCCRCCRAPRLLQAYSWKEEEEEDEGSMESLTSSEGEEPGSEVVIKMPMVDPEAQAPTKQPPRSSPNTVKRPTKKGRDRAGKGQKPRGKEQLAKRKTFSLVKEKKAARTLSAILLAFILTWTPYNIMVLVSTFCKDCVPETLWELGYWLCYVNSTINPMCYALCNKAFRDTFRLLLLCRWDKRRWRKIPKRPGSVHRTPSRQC

[5] = molecular target: Gamma-aminobutyric acid receptor subunit alpha-1/alpha-2/beta-2/gamma-2 (Homo sapiens, UniProt P14867+P18507+P47869+P47870); assay type: protein-complex assay
[6] = molecular target: T2, Muscarinic acetylcholine receptor M1; assay type: functional, cell-based; remark: listed apart in the source
D(1A) dopamine receptor [7] = molecular target: T3, D(1A) dopamine receptor (Homo sapiens, UniProt P21728)
T3 sequence (P21728 whole entry): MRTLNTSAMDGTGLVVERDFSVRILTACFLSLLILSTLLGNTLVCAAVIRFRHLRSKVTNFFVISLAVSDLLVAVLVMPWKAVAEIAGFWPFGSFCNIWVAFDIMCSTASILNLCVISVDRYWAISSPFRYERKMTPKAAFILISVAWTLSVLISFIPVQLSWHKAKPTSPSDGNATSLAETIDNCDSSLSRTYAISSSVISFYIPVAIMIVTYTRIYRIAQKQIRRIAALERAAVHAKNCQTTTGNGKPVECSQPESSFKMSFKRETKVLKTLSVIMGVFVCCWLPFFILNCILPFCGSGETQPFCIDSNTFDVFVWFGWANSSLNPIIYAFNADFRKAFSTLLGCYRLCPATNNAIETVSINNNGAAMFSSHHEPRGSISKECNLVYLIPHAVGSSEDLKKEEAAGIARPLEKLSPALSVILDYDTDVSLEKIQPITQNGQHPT

Androgen receptor = molecular target: T4, Androgen receptor (Homo sapiens, UniProt P10275)
T4 sequence (P10275 whole entry): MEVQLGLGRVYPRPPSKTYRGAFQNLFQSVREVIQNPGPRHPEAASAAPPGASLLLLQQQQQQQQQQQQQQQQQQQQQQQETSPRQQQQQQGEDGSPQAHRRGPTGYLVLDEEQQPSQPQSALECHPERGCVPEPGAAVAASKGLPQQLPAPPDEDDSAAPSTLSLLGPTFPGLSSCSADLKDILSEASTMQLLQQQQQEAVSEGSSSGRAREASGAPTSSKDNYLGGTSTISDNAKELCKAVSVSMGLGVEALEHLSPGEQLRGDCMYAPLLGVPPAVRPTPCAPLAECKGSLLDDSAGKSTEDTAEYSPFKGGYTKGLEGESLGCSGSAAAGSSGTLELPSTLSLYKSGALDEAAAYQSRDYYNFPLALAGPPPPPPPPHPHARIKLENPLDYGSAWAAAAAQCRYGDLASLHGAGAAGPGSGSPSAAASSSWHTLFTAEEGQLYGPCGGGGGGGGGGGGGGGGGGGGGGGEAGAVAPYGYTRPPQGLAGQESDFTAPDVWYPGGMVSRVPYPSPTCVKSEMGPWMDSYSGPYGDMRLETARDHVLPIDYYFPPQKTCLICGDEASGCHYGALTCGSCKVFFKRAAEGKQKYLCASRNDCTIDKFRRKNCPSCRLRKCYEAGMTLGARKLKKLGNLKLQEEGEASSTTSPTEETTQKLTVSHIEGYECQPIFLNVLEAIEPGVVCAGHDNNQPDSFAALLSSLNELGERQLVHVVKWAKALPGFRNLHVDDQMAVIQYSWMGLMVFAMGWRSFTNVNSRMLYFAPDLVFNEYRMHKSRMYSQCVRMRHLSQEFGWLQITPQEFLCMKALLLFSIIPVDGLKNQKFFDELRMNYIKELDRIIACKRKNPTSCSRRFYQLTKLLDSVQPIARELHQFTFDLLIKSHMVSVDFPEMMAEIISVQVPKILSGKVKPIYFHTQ

[8] = molecular target: T5, 5-hydroxytryptamine receptor 1A (Homo sapiens, UniProt P08908)
T5 sequence (P08908 whole entry): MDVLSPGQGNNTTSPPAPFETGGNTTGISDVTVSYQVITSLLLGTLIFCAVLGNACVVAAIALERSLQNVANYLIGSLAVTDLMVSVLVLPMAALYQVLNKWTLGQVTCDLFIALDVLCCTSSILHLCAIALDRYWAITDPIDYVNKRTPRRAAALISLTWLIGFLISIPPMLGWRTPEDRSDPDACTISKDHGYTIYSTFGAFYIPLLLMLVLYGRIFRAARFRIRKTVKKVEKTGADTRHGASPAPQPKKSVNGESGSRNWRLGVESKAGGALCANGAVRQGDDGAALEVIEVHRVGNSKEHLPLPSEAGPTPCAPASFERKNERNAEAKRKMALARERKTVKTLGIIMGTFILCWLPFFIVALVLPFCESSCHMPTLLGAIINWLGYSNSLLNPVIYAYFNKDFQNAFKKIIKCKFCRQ

Histamine H1 receptor = Histamine H1 receptor (Homo sapiens, UniProt P35367); assay type: functional, cell-based
Chain of Histamine H1 receptor (P35367 whole entry): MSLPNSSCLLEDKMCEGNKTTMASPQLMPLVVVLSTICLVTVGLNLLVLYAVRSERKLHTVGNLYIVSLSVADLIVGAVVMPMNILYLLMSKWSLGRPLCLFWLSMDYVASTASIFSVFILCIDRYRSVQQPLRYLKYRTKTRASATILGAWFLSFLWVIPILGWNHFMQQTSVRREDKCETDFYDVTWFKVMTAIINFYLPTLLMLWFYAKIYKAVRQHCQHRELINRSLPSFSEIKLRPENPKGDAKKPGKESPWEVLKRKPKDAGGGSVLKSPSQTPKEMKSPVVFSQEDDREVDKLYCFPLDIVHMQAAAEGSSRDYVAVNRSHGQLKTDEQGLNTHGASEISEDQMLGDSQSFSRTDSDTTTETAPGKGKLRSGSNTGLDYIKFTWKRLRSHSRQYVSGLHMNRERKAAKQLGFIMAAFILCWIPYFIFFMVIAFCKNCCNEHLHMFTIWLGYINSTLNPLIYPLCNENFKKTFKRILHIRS

[9] = molecular target: 5-hydroxytryptamine receptor 2A (Homo sapiens, UniProt P28223)
Chain of 5-hydroxytryptamine receptor 2A (P28223 whole entry): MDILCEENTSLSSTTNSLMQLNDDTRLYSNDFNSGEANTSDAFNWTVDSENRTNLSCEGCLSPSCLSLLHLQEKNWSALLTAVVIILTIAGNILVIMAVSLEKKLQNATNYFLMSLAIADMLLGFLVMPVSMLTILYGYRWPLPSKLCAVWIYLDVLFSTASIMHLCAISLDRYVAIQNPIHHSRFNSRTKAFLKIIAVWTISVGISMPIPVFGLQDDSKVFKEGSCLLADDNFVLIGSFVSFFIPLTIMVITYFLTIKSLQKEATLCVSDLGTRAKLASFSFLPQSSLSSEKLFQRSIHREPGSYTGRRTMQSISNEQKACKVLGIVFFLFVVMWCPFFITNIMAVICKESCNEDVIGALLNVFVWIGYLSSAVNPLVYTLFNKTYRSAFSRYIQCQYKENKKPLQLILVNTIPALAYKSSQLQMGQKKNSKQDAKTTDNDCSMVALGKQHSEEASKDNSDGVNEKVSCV

D(1A) dopamine receptor [10] = molecular target: T3, D(1A) dopamine receptor; remark: listed apart in the source
[11] = molecular target: Gamma-aminobutyric acid receptor subunit alpha-1/alpha-2/beta-2/gamma-2 (Homo sapiens, UniProt P14867+P47870+P18507+P47869); assay type: protein-complex assay
[12] = molecular target: Voltage-dependent L-type calcium channel subunit alpha-1C (Homo sapiens, UniProt Q13936); assay type: functional, cell-based
Chain of Voltage-dependent L-type calcium channel subunit alpha-1C (Q13936 whole entry): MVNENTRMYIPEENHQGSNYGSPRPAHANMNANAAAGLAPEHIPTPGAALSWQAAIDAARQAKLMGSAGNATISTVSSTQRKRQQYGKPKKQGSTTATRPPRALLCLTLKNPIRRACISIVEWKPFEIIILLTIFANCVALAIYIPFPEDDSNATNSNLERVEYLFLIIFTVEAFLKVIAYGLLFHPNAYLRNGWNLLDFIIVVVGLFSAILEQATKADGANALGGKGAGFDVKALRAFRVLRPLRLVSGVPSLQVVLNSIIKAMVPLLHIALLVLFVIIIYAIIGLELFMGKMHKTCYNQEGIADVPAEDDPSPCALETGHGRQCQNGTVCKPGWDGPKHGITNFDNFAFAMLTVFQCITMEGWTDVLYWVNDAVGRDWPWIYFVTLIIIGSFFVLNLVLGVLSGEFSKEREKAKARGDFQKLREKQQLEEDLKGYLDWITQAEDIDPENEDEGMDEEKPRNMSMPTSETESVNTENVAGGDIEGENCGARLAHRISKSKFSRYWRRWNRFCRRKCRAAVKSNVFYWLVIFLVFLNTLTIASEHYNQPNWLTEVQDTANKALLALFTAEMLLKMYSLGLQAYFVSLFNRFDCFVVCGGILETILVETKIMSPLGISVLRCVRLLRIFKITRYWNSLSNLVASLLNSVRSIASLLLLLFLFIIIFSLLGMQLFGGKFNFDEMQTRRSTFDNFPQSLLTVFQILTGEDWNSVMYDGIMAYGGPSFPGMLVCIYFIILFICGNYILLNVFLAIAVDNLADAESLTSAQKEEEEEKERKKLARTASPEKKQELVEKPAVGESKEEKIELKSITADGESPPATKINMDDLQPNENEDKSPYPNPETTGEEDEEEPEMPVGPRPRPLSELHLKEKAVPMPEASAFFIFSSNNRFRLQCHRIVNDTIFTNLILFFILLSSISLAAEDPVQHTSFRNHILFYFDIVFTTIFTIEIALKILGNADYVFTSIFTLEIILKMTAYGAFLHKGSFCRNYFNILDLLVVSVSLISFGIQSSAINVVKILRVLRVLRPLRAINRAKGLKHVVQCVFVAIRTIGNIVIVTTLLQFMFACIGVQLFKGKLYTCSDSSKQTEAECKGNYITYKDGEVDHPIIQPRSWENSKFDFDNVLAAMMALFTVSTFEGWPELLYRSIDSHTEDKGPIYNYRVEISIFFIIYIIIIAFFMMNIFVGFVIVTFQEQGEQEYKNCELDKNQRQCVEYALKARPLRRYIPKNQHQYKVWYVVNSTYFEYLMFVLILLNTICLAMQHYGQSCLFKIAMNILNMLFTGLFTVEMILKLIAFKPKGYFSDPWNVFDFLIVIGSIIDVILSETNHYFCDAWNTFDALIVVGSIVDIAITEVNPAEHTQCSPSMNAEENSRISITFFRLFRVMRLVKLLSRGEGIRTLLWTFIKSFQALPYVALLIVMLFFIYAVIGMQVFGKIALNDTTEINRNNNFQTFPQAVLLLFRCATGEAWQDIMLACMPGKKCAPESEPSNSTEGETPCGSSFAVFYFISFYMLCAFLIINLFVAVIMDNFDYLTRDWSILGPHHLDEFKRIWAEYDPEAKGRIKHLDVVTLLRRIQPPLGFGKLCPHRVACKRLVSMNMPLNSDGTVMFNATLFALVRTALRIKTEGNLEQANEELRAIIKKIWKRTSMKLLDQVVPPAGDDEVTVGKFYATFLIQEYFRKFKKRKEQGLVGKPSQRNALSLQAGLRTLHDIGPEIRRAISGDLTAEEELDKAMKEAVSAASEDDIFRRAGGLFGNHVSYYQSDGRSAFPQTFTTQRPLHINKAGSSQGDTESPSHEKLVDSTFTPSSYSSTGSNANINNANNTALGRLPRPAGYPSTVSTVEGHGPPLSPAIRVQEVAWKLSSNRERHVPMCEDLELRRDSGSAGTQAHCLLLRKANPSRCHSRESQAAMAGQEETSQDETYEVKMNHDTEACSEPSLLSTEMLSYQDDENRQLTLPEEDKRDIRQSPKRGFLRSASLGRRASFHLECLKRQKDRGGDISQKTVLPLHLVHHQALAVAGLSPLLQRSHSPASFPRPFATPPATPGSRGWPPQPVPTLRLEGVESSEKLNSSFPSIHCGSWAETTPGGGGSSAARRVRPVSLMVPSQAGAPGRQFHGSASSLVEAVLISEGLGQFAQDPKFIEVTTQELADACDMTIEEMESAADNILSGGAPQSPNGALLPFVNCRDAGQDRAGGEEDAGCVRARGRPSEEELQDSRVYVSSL
Further: assay procedure not described here.

Question: For `Brc1c(NC2=NCCN2)ccc2nccnc12` [BRIMONIDINE], which AC50 [1] is on record?
Answer: > 30 µM

Question: How did the AC50 [2] turn out when `Cc1c(OCC(F)(F)F)ccnc1C[S+]([O-])c1nc2ccccc2[nH]1` (centres undefined) [LANSOPRAZOLE] was run?
Answer: > 10 µM

Question: Which results are given for `CO[C@]12C[C@@H](COC(=O)c3cncc(Br)c3)CN(C)[C@@H]1Cc1cn(C)c3cccc2c13` [NICERGOLINE]?
Answer: AC50 [3]: > 30 µM; AC50 [4]: 1860 nM; AC50 [5]: > 10 µM; AC50 [6]: > 30 µM; AC50 (D(1A) dopamine receptor [7]): 393 nM; AC50 (Androgen receptor): > 30 µM; AC50 [8]: 3 nM

Question: Which AC50 (Histamine H1 receptor) does the source give for `NC(=O)CN1CC(O)CC1=O` (centres undefined) [OXIRACETAM] here?
Answer: > 30 µM

Question: `Cc1nnc2n1-c1ccc(Cl)cc1C(c1ccccc1Cl)=NC2` [TRIAZOLAM] was tested. Which AC50 [9] did it give?
Answer: 3.2 µM

Question: For THIMEROSAL, which AC50 (D(1A) dopamine receptor [10]) is on record?
Answer: 10 µM

Question: And the AC50 [11]?
Answer: > 30 µM

Question: What about the AC50 [12] of the same molecule?
Answer: > 50 µM
